Values of other authors, collected in patent US20050266081A1, “Antimicrobial silver hydrogels” (priority 2004, published 2005).

Test system: skin cell respiration
Conditions: application of 1 to 10 mg/ml of silver; probable factor in the interference of wound healing

Substance: silver
- inhibition of skin cell respiration: 30%
